These results are taken from ChEMBL document CHEMBL3046355, “Design, synthesis, and herbicidal activities of novel 2-cyanoacrylates containing isoxazole moieties” (2010).

Type in all cases: functional
Assay [1] has as its system Amaranthus retroflexus. In words: Herbicidal activity against Amaranthus retroflexus assessed as inhibition of weed growth at 375 g/ha using postemergence treatment protocol. The note with it: post-emergence.
Assay [2] has as its system Amaranthus retroflexus. In words: Herbicidal activity against Amaranthus retroflexus assessed as inhibition of weed growth at 750 g/ha using postemergence treatment protocol. The conditions noted are these: post-emergence.
Assay [3] has as its system Digitaria sanguinalis. In words: Herbicidal activity against Digitaria sanguinalis (hairy crabgrass) assessed as inhibition of weed growth at 1.5 kg/ha using post-emergence treatment protocol.
Assay [4] has as its system Amaranthus retroflexus. As to the kind of experiment: Herbicidal activity against Amaranthus retroflexus assessed as inhibition of weed growth at 1.5 kg/ha using postemergence treatment protocol. The conditions noted are these: post-emergence.
Assay [5] deals with Brassica napus. As to the kind of experiment: Herbicidal activity against Brassica napus (oilseed rape) assessed as inhibition of weed growth at 375 g/ha using postemergence treatment protocol. The conditions noted are these: post-emergence.
Assay [6] deals with Brassica napus. In words: Herbicidal activity against Brassica napus (oilseed rape) assessed as inhibition of weed growth at 750 g/ha using postemergence treatment protocol. The conditions noted are these: post-emergence.
Assay [7] deals with Digitaria sanguinalis. In words: Herbicidal activity against Digitaria sanguinalis (hairy crabgrass) assessed as inhibition of weed growth at 1.5 kg/ha using pre-emergence treatment protocol.
Assay [8] concerns Echinochloa crus-galli. As to the kind of experiment: Herbicidal activity against Echinochloa crus-galli (barnyard grass) assessed as inhibition of weed growth at 1.5 kg/ha using preemergence treatment protocol. The note with it: pre-emergence.
Assay [9] has as its system Amaranthus retroflexus. In words: Herbicidal activity against Amaranthus retroflexus assessed as inhibition of weed growth at 1.5 kg/ha using preemergence treatment protocol. The conditions noted are these: pre-emergence.
Assay [10] has as its system Brassica napus. As to the kind of experiment: Herbicidal activity against Brassica napus (oilseed rape) assessed as inhibition of weed growth at 1.5 kg/ha using postemergence treatment protocol. The note with it: post-emergence.
In assay [11] the test system is Echinochloa crus-galli. As to the kind of experiment: Herbicidal activity against Echinochloa crus-galli (barnyard grass) assessed as inhibition of weed growth at 1.5 kg/ha using postemergence treatment protocol. The note with it: post-emergence.
Assay [12] concerns Amaranthus retroflexus. As to the kind of experiment: Herbicidal activity against Amaranthus retroflexus assessed as inhibition of weed growth at 75 g/ha using postemergence treatment protocol. The note with it: post-emergence.
The subject of assay [13] is Amaranthus retroflexus. As to the kind of experiment: Herbicidal activity against Amaranthus retroflexus assessed as inhibition of weed growth at 150 g/ha using postemergence treatment protocol. The note with it: post-emergence.
Assay [14] concerns Brassica napus. In words: Herbicidal activity against Brassica napus (oilseed rape) assessed as inhibition of weed growth at 75 g/ha using postemergence treatment protocol. The note with it: post-emergence.
The test system of assay [15] is Brassica napus. In words: Herbicidal activity against Brassica napus (oilseed rape) assessed as inhibition of weed growth at 150 g/ha using postemergence treatment protocol. The conditions noted are these: post-emergence.
Assay [16] relates to Brassica napus. As to the kind of experiment: Herbicidal activity against Brassica napus (oilseed rape) assessed as inhibition of weed growth at 1.5 kg/ha using preemergence treatment protocol. The conditions noted are these: pre-emergence.

As for `CCOCCOC(=O)/C(C#N)=C(\NCc1cc(C(C)C)no1)SC`, the inhibition (commonly the share of the control response that was lost under treatment) at 375 g/ha came to 0% in assay [1] and 52.3% in [5]. The inhibition at 750 g/ha in [2] came out at 37.6%; in assay [6] it was 76.9%. Besides, the inhibition at 1500 g/ha stood at 48.4% in assay [3]; 94% in assay [4]; 0% in [7]; 0% in [8]; 25% in [9]; 100% in assay [10]. Also, the inhibition at 1500 g/ha in assay [11] is 32.6%.
For `CCOCCOC(=O)/C(C#N)=C(\NCc1cc(C(C)C)no1)C(C)C`, the inhibition at 75 g/ha in assay [12] was 0%; in [14], 52%. The inhibition at 150 g/ha is 0% in assay [13] and 92.8% in [15]. For the same compound, the inhibition at 375 g/ha was 54.6% in [1] and 97.7% in [5]. Moreover, the inhibition at 750 g/ha in [2] and in assay [6] was 100% throughout. Besides, the inhibition at 1500 g/ha in assay [3] was found to be 48.4%; in [4], 100%; in assay [7] it was 0%; in assay [8], 5%; in [9], 100%; in assay [10], 100%. The inhibition at 1500 g/ha in [11] was 12.5%.
For `CCOCCOC(=O)/C(C#N)=C(\NCc1cc(Br)no1)SC`, the inhibition at 375 g/ha worked out at 0% in [1] and 87% in assay [5]. The inhibition at 750 g/ha in assay [2] worked out at 0%; in assay [6], 93%. The inhibition at 1500 g/ha in [3] stood at 55.3%; in assay [4] it was 99.1%; in assay [7], 0%; in assay [8] it was 2.4%; in assay [9], 0%; in [10], 100%. In [11], the inhibition at 1500 g/ha amounted to 36.8%.
On to `CCOCCOC(=O)/C(C#N)=C(\NCc1cc(Br)no1)C(C)C`, for which the results for the inhibition at 75 g/ha in assay [12] and in assay [14] were 46.5% and 100%, respectively. Moreover, the inhibition at 150 g/ha in assay [13] amounted to 90%; in [15], 100%. In addition, the inhibition at 375 g/ha in assay [1] and in assay [5] was 100% each time. Also, the inhibition at 750 g/ha in assay [2] and in [6] was 100% each time. Further, the inhibition at 1500 g/ha in [3] stood at 42.1%; in assay [4], 100%; in assay [7] it was 0%; in assay [8] it was 22.6%; in [9], 60%; in assay [10], 100%. The inhibition at 1500 g/ha in assay [11] amounted to 66.5%.
As for `CCOCCOC(=O)/C(C#N)=C(\NCc1cc(-c2ccc(C(C)(C)C)cc2)no1)SC`, the inhibition at 375 g/ha worked out at 28.3% in [1] and 9.8% in [5]. For the same compound, the results for the inhibition at 750 g/ha in [2] and in assay [6] were 45.7% and 22.2%, respectively. The inhibition at 1500 g/ha in assay [3] worked out at 55.8%; in assay [4] it was 100%; in assay [16], 0%; in assay [7] it was 0%; in assay [8], 0%; in assay [9], 10%. The inhibition at 1500 g/ha in assay [10] worked out at 100%; in assay [11], 0%.
Take `CCOCCOC(=O)/C(C#N)=C(\NCc1cc(-c2ccc(C(C)(C)C)cc2)no1)C(C)C`: the values for the inhibition at 375 g/ha in [1] and in [5] were 54.3% and 41.7%, respectively. Further, the inhibition at 750 g/ha amounted to 89.1% in assay [2] and 85.8% in assay [6]. Further, the inhibition at 1500 g/ha in assay [3] stood at 24.7%; in [4], 100%; in assay [16], 0%; in assay [7], 0%; in assay [8] it was 0%; in assay [9] it was 0%. The inhibition at 1500 g/ha in assay [10] turned out to be 100%; in [11] it was 0%.
In the case of `CCOCCOC(=O)/C(C#N)=C(\NCc1cc(-c2ccc(Cl)cc2Cl)no1)SC`, the inhibition at 375 g/ha in [1] and in [5] was 0% in each case. In addition, the results for the inhibition at 750 g/ha in [2] and in assay [6] were 46% and 0%, respectively. Also, the inhibition at 1500 g/ha was determined as 64.1% in assay [3]; 89.9% in assay [4]; 45% in assay [16]; 15.6% in assay [7]; 0% in [8]; 65.8% in assay [9]. Besides, the values for the inhibition at 1500 g/ha in assay [10] and in assay [11] were 100% and 45.2%, respectively.
In the case of `CCOCCOC(=O)/C(C#N)=C(\NCc1cc(-c2ccccc2OC)no1)SC`, the inhibition at 375 g/ha in assay [1] was found to be 0%; in assay [5], 15.8%. Moreover, the inhibition at 750 g/ha in assay [2] came to 16%; in [6], 43.8%. Besides, the inhibition at 1500 g/ha in assay [3] turned out to be 52.3%; in assay [4], 90.6%; in assay [16] it was 19%; in [7], 17.3%; in assay [8] it was 0%; in [9], 47.8%. The inhibition at 1500 g/ha in assay [10] was 100%; in assay [11] it was 52%.
`CCOCCOC(=O)/C(C#N)=C(\NCc1cc(-c2ccc(OC)cc2)no1)SC`: the values for the inhibition at 375 g/ha in [1] and in [5] were 34.8% and 57.5%, respectively. Besides, the figures for the inhibition at 750 g/ha in assay [2] and in assay [6] were 87% and 94.6%, respectively. For the same compound, the inhibition at 1500 g/ha is 32.5% in assay [3]; 100% in [4]; 10% in [16]; 0% in assay [7]; 0% in assay [8]; 0% in assay [9]. The inhibition at 1500 g/ha in assay [10] came out at 100%; in [11] it was 0%.
As for `CCOCCOC(=O)/C(C#N)=C(\NCc1cc(-c2ccccc2Cl)no1)C(C)C`, the inhibition at 75 g/ha in [12] is 77%; in assay [14], 100%. Moreover, the results for the inhibition at 150 g/ha in assay [13] and in assay [15] were 94.4% and 100%, respectively. Moreover, the inhibition at 375 g/ha is 96% in assay [1] and 100% in [5]. Further, the inhibition at 750 g/ha in [2] amounted to 98.3%; in [6], 100%. The inhibition at 1500 g/ha in [3] was found to be 24%; in [4], 100%; in assay [7], 0%; in assay [8] it was 0%; in assay [9] it was 0%; in assay [10], 100%. Moreover, the inhibition at 1500 g/ha in [11] came out at 47.2%.
With `CCOCCOC(=O)/C(C#N)=C(\NCc1cc(-c2ccc(Cl)cc2)no1)SC`, the inhibition at 375 g/ha amounted to 4% in assay [1] and 0% in [5]. The results for the inhibition at 750 g/ha in assay [2] and in [6] were 22% and 0%, respectively. For the same compound, the inhibition at 1500 g/ha in assay [3] stood at 72.7%; in assay [4], 89.9%; in assay [16] it was 28.4%; in assay [7], 14.8%; in [8], 0%; in assay [9] it was 23.1%. The inhibition at 1500 g/ha in assay [10] came out at 100%; in assay [11], 58.2%.
On to `CCOCCOC(=O)/C(C#N)=C(\NCc1cc(-c2ccccc2)no1)SC`, for which the values for the inhibition at 375 g/ha in [1] and in assay [5] were 7% and 17.8%, respectively. For the same compound, the inhibition at 750 g/ha in [2] was 34%; in assay [6], 100%. In addition, the inhibition at 1500 g/ha in [3] is 55.5%; in [4], 100%; in assay [16], 15.8%; in [7], 0%; in assay [8], 0%; in assay [9], 67.7%. Further, the figures for the inhibition at 1500 g/ha in assay [10] and in assay [11] were 100% and 57%, respectively.
With `CCOCCOC(=O)/C(C#N)=C(\NCc1ccc(Cl)nc1)SC`, the results for the inhibition at 75 g/ha in [12] and in assay [14] were 0% and 80.9%, respectively. The figures for the inhibition at 150 g/ha in assay [13] and in [15] were 0% and 100%, respectively. Besides, the inhibition at 375 g/ha in assay [1] was found to be 18.7%; in assay [5], 100%. Further, the inhibition at 750 g/ha in assay [2] was 87.9%; in assay [6], 100%. Further, the inhibition at 1500 g/ha in assay [3] was 54.1%; in assay [4], 100%; in [16], 47.6%; in assay [7], 18.8%; in assay [8] it was 3.6%; in [9], 32.4%. In addition, the inhibition at 1500 g/ha in assay [10] is 100%; in assay [11], 55.3%.
